# Columns and labels:
# [1] = tested on: Staphylococcus aureus ATCC 6538-P; assay: time kill assay, S. aureus; type: cell-based
# Method: Staphylococcus aureus infections can lead to many skin diseases. Impetigo, furuncles, folliculitis, and carbuncles are all diseases caused by an infection of S. aureus. A microbiological study used a time kill assay with Staphylococcus aureus ATCC 6538-P as an indicator of the antibacterial activity of proguanil. […] A broth only control as well as a solvent 10% DGME control were added to the vials so that the total test volume was 15 ml. One hundred μl of a freshly grown suspension of the Staphylococcus aureus was then added at time zero so that the initial bacterial suspension was between 10^3 and 10^4 CFU/ml. All test and control suspensions were then incubated under aerobic conditions at 35° C. […] These plates were incubated aerobically at 35° C. for 1-3 days. Surviving colonies were then counted and the CFU/ml of test and control suspensions calculated and graphed.
# S. pyogenes ATCC 19615 = assay: time kill assay, S. pyogenes (Group A); type: cell-based, Streptococcus pyogenes
# Method: (§1) Streptococcus pyogenes (Group A) infections can lead to many skin disease syndromes. Impetigo, ecthyma, erysipelas, and cellulitis are all diseases caused by an infection of S. pyogenes. A microbiological study used a time kill assay with S. pyogenes ATCC 19615 as an indicator of the antibacterial activity of proguanil. […] A broth only control as well as a solvent 10% DGME control were added to the vials so that the total test volume was 15 ml. One hundred μl of a freshly grown suspension of the S. pyogenes was then added at time zero so that the initial bacterial suspension was between 10^7 and 10^8 CFU/ml. All test and control suspensions were then incubated under aerobic conditions at 35° C. Aliquots of the test and control suspensions were removed at 24, 48, and 72 hours and plated onto tryptic soy agar in triplicate using a spiral plater. These plates were incubated aerobically at 35° C. for 1-3 days. Surviving colonies were then counted and the CFU/ml of test and control suspensions calculated and graphed. The effects of proguanil on the S. pyogenes were observed.
# [2] = tested on: C. minutissimum ATCC 23348; assay: time kill assay, C. minutissimum; type: cell-based, Corynebacterium minutissimum
# Method: as §1, with “Corynebacterium minutissimum is the causative agent of erythrasma, a superficial” for “Streptococcus pyogenes (Group A) infections can lead to many skin disease syndromes. Impetigo, ecthyma, erysipelas, and cellulitis are all diseases caused by an”, “the skin characterized by slowly spreading pruritic, reddish-brown macular patches.” for “S. pyogenes.”, “C. minutissimum” for “S. pyogenes”, “23348” for “19615”
# [3] = tested on: Candida albicans ATCC 10231; assay: time kill assay, C. albicans; type: cell-based
# Method: A time kill assay was used to test the effects of varying concentrations of proguanil on a culture of Candida albicans ATCC 10231. An inoculum of C. albicans was prepared and inoculated in vials containing Muller Hinton II broth and proguanil concentrations of 1280, 640, 480, 320, 160 μg/ml. A growth control using phosphate buffered saline A (PBSA) plus Mueller Hinton II broth was used in place of the drug because it has no antimicrobial effect. DGME was the solvent used to dissolve the proguanil. Accordingly, 10% DGME was used as the solvent control. These inoculated broth solutions were then allowed to incubate for a period of 72 hours. Samples were taken at 0, 4, 24, 48 and 72 hours and spiral plated so the CFU/ml could be calculated.
# [4] = tested on: Streptococcus equi subsp. equi ATCC 33398; assay: time kill assay, S. equi (Group C); type: cell-based
# Method: Streptococcus equi (Group C) infections can lead to skin diseases such as erysipelas and cellulitis. A time kill assay was used to test the effects of varying concentrations of proguanil on a culture of Streptococcus equi subsp. equi ATCC 33398. An inoculum of S. equi was prepared and inoculated in vials containing Mueller Hinton II broth and proguanil concentrations of 160, 80, 16, 8, and 1.6 μg/ml. A growth control using phosphate buffered saline A (PBSA) plus Mueller Hinton II broth was used in place of the drug because it has no antimicrobial effect. DGME was the solvent used to dissolve the proguanil, accordingly, 10% DGME was used as the solvent control. These inoculated broth solutions were then allowed to incubate for a period of 72 hours. Samples were taken at 0, 4, 24, 48 and 72 hours and spiral plated so the CFU/ml could be calculated. In the experiments, the effects of proguanil on the S. equi were observed.
structure (smiles),measurement,setting,value
"CC(C)NC(=N)NC(=N)Nc1ccc(Cl)cc1 [Proguanil, N-(4-Chlorophenyl)-N′-(1-methylethyl)imidodicarbonimidic diamide]",inhibition of the bacteria,"[1]; 160 μg/ml, all time points, similar to the DGME solvent control",slight inhibition
same,kill of S. aureus,"[1]; 320 μg/ml, by the 24 hour time point and later through 72 hours",complete kill
same,kill of the bacteria,"[1]; 1280, 640, and 480 μg/ml, by the 4 hour time point and later through 72 hours",complete kill
same,Relative Sensitivity (Compared to Other Strains Tested),[1]; Staphylococcus aureus ATCC-6538P,Moderately
same,Approximate Inhibitory Level,"[1]; Staphylococcus aureus ATCC-6538P, level at which partial or total inhibition of growth is observed",320 µg/mL
same,effect on the bacteria,S. pyogenes ATCC 19615; 1.6 μg/ml,roughly followed the trend of the Mueller Hinton II broth control
same,effect on the bacteria,"S. pyogenes ATCC 19615; 8 μg/ml and 16 μg/ml, compared to Mueller Hinton II control",may be slightly inhibitory
same,effect on the bacteria,"S. pyogenes ATCC 19615; 80 μg/ml, lesser effect than 160 and 100 μg/ml",good growth inhibition
same,effect on the bacteria,"S. pyogenes ATCC 19615; 100 μg/ml, over 72 hours, single assay",substantial effect
same,CFU/ml,"S. pyogenes ATCC 19615; 160 μg/ml, T=24, 48 and 72 hours",0 CFU/ml
same,effect on the bacteria,"S. pyogenes ATCC 19615; 160 μg/ml, lowest CFU/ml at all time points",greatest effect
same,Relative Sensitivity (Compared to Other Strains Tested),S. pyogenes ATCC 19615; Streptococcus pyrogenes (Group A) ATCC 19615,Sensitive
same,Approximate Inhibitory Level,"S. pyogenes ATCC 19615; Streptococcus pyrogenes (Group A) ATCC 19615, level at which partial or total inhibition of growth is observed",80 to 160 µg/mL
same,effect on CFU/ml,"[2]; 160 and 80 μg/ml, at 4 hours, 160 greater effect than 80",reduced the CFU/ml
same,CFU/ml,"[2]; 160 and 80 μg/ml, by the 24 hour time point",0 CFU/ml
same,Relative Sensitivity (Compared to Other Strains Tested),[2]; Corynebacterium minutissimum (ATCC 23348),Very Sensitive
same,Approximate Inhibitory Level,"[2]; Corynebacterium minutissimum (ATCC 23348), level at which partial or total inhibition of growth is observed",80 µg/mL
same,effect compared to controls,"[2]; all other test concentrations (1.6, 8, 16 μg/ml)",little effect
same,CFU/ml,"[3]; 160 μg/ml, static from 24 to 72 hours",80 CFU/ml
same,effect on C. albicans,"[3]; 320 μg/ml, 24 hour time point and later",completely killed
same,CFU counts,"[3]; 1280 μg/ml, all time points 0-72 hours",0 CFU
same,effect on the yeast,"[3]; 640 and 480 μg/ml, 4-72 hour time points",killing all of the yeast
same,Relative Sensitivity (Compared to Other Strains Tested),[3]; Candida albicans,Moderately
same,Approximate Inhibitory Level,"[3]; Candida albicans, level at which partial or total inhibition of growth is observed",320 µg/mL
same,effect on CFU/ml,"[4]; 80 μg/ml, time zero to 72 hours",only a slight increase in CFU/ml
same,effect on the bacteria,[4]; 160 μg/ml,strong inhibition and killing
same,CFU/ml,"[4]; 160 μg/ml, T=48 and 72 hours",0 CFU/ml
same,Relative Sensitivity (Compared to Other Strains Tested),[4]; Streptococcus equi subspecies equi (Group C) ATCC 33398,Sensitive
same,Approximate Inhibitory Level,"[4]; Streptococcus equi subspecies equi (Group C) ATCC 33398, level at which partial or total inhibition of growth is observed",80 to 160 µg/mL
same,effect on CFU/ml,"[4]; all other concentrations (16, 8, 1.6 μg/ml)",very similar and near the CFU/ml of the Mueller Hinton II broth control
